Consider two substances from patent US8623832B2, “Peptide compositions that bind TLR-4” (The Board of Regents of the University of Oklahoma, priority 2011, dated 2014).

Where no end group is shown, it is not given here.

Assay [1] concerns TLR4. Nature of the assay: TLR4 expression in SW480 cells by immunocytochemistry / confocal microscopy. The note with it: LPS 4 hours then SPA4 1 hour, more pronounced with 100 μM. It is filed as cell-based, human. On the procedure:
Expression of TLR4: Next, the effect of SPA4 peptide on the expression of TLR4 in SW480 cells was investigated by immunocytochemistry and laser confocal microscopy. Briefly, about 2.5×10^4 cells were seeded in an 8-well chamber slide (Thermo Fisher Scientific, Rochester, N.Y.) in complete medium. The cells were treated with E. coli O111:B4-derived, highly-purified, low-protein LPS (100 ng/ml or 1.0 μg/ml; Calbiochem, CA) for 4 hours following 1 hour incubation with SPA4 peptide (1, 10 and 100 μM). The cells were fixed in 3.5% paraformaldehyde in Dulbecco's PBS (DPBS) and permeabilized with 0.05% saponin solution (Inaba et al. 1998). The wells were washed with DPBS supplemented with 1% FBS and 0.05% saponin, and stained with TLR4-specific antibody (1:50 dilution, Abcam, Mass.) and 10 μg/ml Alexa-fluor 488-labeled secondary anti-rabbit IgG antibody (Invitrogen-Molecular Probes, CA). After washing, the cells were stained with 100 nM rhodamin-phallodin (Cytoskeleton Inc, CO) and 1 μg/ml Hoechst 33342 dyes (Invitrogen-Molecular Probes, CA). Confocal microscopic images were acquired at the Imaging core facility of the Oklahoma Medical Research Foundation, Oklahoma City, using the Zeiss LSM-510 META laser scanning confocal microscope. Images were acquired with lens objective of 63× with the x/y stack sizes being 146.2 μm using band pass filter specifications at 435-485, 560-615 and 505-530.

For assay [2], the system named is NF-κB. Nature of the assay: NF-κB luciferase reporter activity in LPS-challenged JAWS II dendritic cells. It is filed as cell-based, mouse. How it is done:
At the molecular level, the effects of SPA4 peptide on LPS-induced NF-κB activity were studied in dendritic cells (JAWS II cells) co-transfected with NFκB luciferase reporter plasmid construct and dominant negative construct of MYD88 (an adaptor protein downstream of TLR4; MYD88DN). Briefly, JAWS II dendritic cells (0.5×10^6) were transfected with NF-κB luciferase reporter and/or MYD88DN using TransIT-TKO transfection reagent as described earlier (Awasthi S et al., 2003). After 20-24 hours of incubation, the transfected cells were challenged with LPS (100 ng/ml) for 4 hours and treated with SPA4 peptide (10 μM) for 1 hour. After the completion of 5 hours incubation, the cell lysates were prepared in cell lysis buffer and NF-κB-luciferase reporter activity was measured as per the manufacturer's instructions (Promega, WI).

Assay [3] concerns SW480 cells. Nature of the assay: Cell cycle analysis of SW480 cells by flow cytometry. It is filed as cell-based, human. As to conditions: SPA4 10, 50 and 100 μM; over 40 h. How it is done:
Cell cycle analysis: The effect of SPA4 peptide on cell cycle progression was studied by flow-cytometry. About 500,000 cells were seeded per well into 6 well plate. The cells were challenged with LPS (100 ng/ml) for 4 hours. After the completion of 4 hours LPS-challenge period, SPA4 peptide (10, 50 and 100 μM) was added to the cells. Cells were further incubated for 20 and 40 hours. Vehicle-treated cells were also included. After 20 and 40 hours of total incubation period, both adherent and non-adherent cells were collected and centrifuged at 260×g for 5 minutes. The supernatant was discarded and cell pellet was washed with DPBS (Invitrogen-Gibco, NY). The cells were fixed in 70% ice-cold ethanol on ice for 1 hour and stained with a buffer containing 200 μg/ml DNase-free RNase A (Sigma, St Louis, Mo.), 0.1% v/v Triton-X 100 and 20 μg/ml propidium iodide (Molecular Probes, Carlsbad, Calif.). The cells were incubated at 4° C. for 30 minutes in the dark, before measuring cell fluorescence using Becton Dickson FACS Calibur flow cytometer. The single cells were selected by gating out the aggregates and the percent number of cell populations in different cell cycle phases were calculated by de-convoluting the results ModFIT software (Verity software house, Topsham, Me.).

Assay [4] deals with DSS-colitis. Nature of the assay: Dextran sodium sulfate (DSS)-colitis model in mice. The class given is in vivo. As to conditions: 3% DSS 7 days, SPA4 100 μg daily intraperitoneal. How it is done: SPA4 peptide reduced serum TNF-α and inflammation in Dextran sodium sulfate (DSS)-colitis model in mice (FIG. 18). SPA4 peptide was also evaluated in the mouse model of DSS-colitis. DSS (3% in drinking water) was given to the mice for a period of 7 days. In the treatment group, mice were simultaneously injected with SPA4 peptide (100 μg daily via intraperitoneal route). After 2 days of recovery period, the mice were weighed, colons were macroscopically examined, and blood samples were harvested. The TNF-α levels were measured by ELISA.

Assay [5] deals with primary adult baboon lung DCs and fetal baboon lung DC-precursor cells. Nature of the assay: TNF-α secretion against E. coli by baboon lung DCs (ELISA). The class given is cell-based. On the procedure:
After confirming that the fluorescence is of phagocytosed bioparticles, comprehensive experiments were performed in presence and absence of effector molecules (SP-A and TLR4-MD2 proteins). The cells were pulsed with purified, native baboon lung SP-A and recombinant human TLR4-MD2 or MD2 proteins (RnD Systems, MN) for an hour prior to phagocytosis assay with pHrodo-conjugated, heat-killed E. coli K12 bioparticles (Invitrogen-Molecular Probes, CA). MD2 protein was also included, because SP-A is known to interact with MD2, and it was questioned if MD2 can influence the immune functions of DC-population. The assay was performed in serum-free Opti-MEM medium (Invitrogen, CA), as described by the manufacturer (Invitrogen-Molecular Probes, CA). The assay mixtures were incubated for another 3 hours at 37° C. in 5% CO2 incubator. The fluorescence readings were taken at 550 nm excitation and 600 nm emission wavelengths using SpectraMax M2 spectrofluorometer (Molecular Devices, CA).
Cytokine (TNF-α) measurement: The TNF-α levels were measured in cell-free supernatants by enzyme linked immunosorbent assay (ELISA) using a commercially available kit (eBioscience, CA), as per the manufacturer's instructions. Briefly, the microwells of a 96 well plate were coated with diluted purified anti-human TNF-α antibody. The wells were washed, and nonspecific sites were blocked. Diluted recombinant human TNF-α (7.8-500 pg/ml standard) and cell-free-supernatant (1:10) were added to the antibody-coated wells, and the plate was incubated overnight at 4° C. The next day, the plate was washed and incubated with biotin-conjugated anti-human TNF-α antibody followed by avidin-horseradish peroxidase and substrate solution. The reaction was stopped by adding 2 N H2SO4 and read at 450 nm (Molecular Devices, CA).
Background: In an ELISA, binding on a coated surface is turned into a signal by an enzyme label.

Take “GDFRYSDGTPVNYTNWYRGE [SPA4, GDFRYSDGT PVNYTNWYRGE]”: the “LPS-stimulated TLR4 expression” value in assay [1] was “reduced the LPS-stimulated TLR4 expression to basal level”. In assay [2] (JAWS II co-transfected with MYD88 dominant negative), the “MYD88-independent NF-κB activity” value is “does not affect”. For the same substance, the “LPS-induced NF-κB activity in dendritic cells” value in assay [2] (JAWS II, LPS 100 ng/ml 4 hours, SPA4 10 μM 1 hour) is on record as “inhibits”. The “cell cycle progression of SW480 cells” value in assay [3] is recorded as “did not affect”. The “colitis symptoms (distension and shortening of the colon)” value in assay [4] is “reduced the colitis symptoms”. The “DSS-induced serum levels of circulating TNF-α” value in assay [4] (ELISA) is given as “completely inhibited”. Besides, in assay [4] (compared to DSS-colitis mice), the body weight result is “recovered” and the colon length entry is on record as “recovered”.

Take “SP-A: native surfactant protein-A purified from bronchioalveolar lavage fluid of a normal healthy adult baboon (MWLCPLALTLTLMAASGAACEVKDVCVGSPGIPGTPGSHGLPGRDGRDGVKGDPGPP; listed as Papio cynocephalus)”: the “secretion of TNF-α by DCs in response to E. coli” value in assay [5] (3 hours phagocytosis reaction, protein added alone) is reported as “did not induce the secretion of TNF-α”. For the same substance, the “TLR4-MD2 protein-induced TNF-α release against E. coli” value in assay [5] (SP-A and TLR4-MD2 added together, 3 hours with E. coli) is recorded as “reduces”.
